One block for each molecule: values may come before it.
How the values were obtained:
[1] = Ester metabolism stability test: stability in human liver; type: in vitro ADME; conditions: 37° C., 20 minutes, with NADPH
Description: A reaction solution containing 5 μL of human liver S9 (manufactured by Sekisui XenoTech, LLC, 20 mg/mL) mixed with 20 μL of 500 mmol/L Kpi (pH 7.4), 40 μL of a 5 mmol/L aqueous solution of NADPH (manufactured by Oriental Yeast Co., Ltd.), and 133 μL of ion-exchange water was added to 2 μL of a DMSO solution containing a 100 μmol/L test substance, and the mixture was incubated at 37° C. for 20 minutes. After the incubation, the metabolic reaction was terminated by the addition of 600 μL of acetonitrile.

human plasma = experiment: Ester metabolism stability test: stability in human plasma; type: in vitro ADME; conditions: 37° C., 20 minutes
Description: 198 μL of human plasma (manufactured by Cosmo Bio Inc.) was added to 2 μL of a DMSO solution containing a 100 μmol/L test substance, and the mixture was incubated at 37° C. for 20 minutes. After the incubation, the metabolic reaction was terminated by the addition of 600 μL of acetonitrile.

[2] = Ester metabolism stability test: metabolite identification by LC-MS
From the text: The metabolites were identified using LC (LC-Nexera X2 manufactured by Shimadzu Corp.)-MS (API4000 manufactured by AB Sciex Pte Ltd.).

male cynomolgus monkey = experiment: Cynomolgus monkey aPTT evaluation test; type: in vivo
Description: The compound of Example 7 was suspended in a 0.5% aqueous methylcellulose solution, and this suspension was orally administered at a dose of 10 mg/5 mL/kg or 30 mg/5 mL/kg to a male cynomolgus monkey fasted for 16 hours. Blood collection for aPTT evaluation was carried out before administration and 0.5, 1, 2, 4, 6, and 24 hours after administration. 0.9 mL of blood was collected using a syringe packed with 100 μL of 3.2% sodium citrate, transferred to a centrifugal tube cooled in ice, and centrifuged at 2100 g at 4° C. for 10 minutes to prepare plasma. After incubation at 37° C. for 6 minutes, an STA reagent Cephascreen (for aPTT assay; manufactured by Roche Diagnostics K.K.) was added in an amount equal to the amount of the plasma, and the mixture was further incubated for 4 minutes. STA calcium chloride (manufactured by Roche Diagnostics K.K.) was added in an amount equal to the amount of the plasma, and the time required for coagulation was measured. Blood collection for the measurement of the compound concentration was carried out 0.5, 1, 2, 4, 6, and 24 hours after administration. 1 mL of blood was collected using a syringe packed with 10 μL of Novo-Heparin Injection, transferred to a centrifugal tube cooled in ice, and centrifuged at 2100 g at 4° C. for 10 minutes to prepare plasma. 200 μL of the prepared plasma was added to a tube containing 600 μL of acetonitrile and mixed for approximately 10 seconds using a vortex mixer. Then, the concentration of the compound of Reference Example 2-6 (a value based on the free form) was measured.

[3] = system: Rabbit venous thrombus models; experiment: Effect of combined use with antiplatelet drug using rabbit AVST model; type: in vivo; conditions: alone, dose 0.67 + 1.0 mg/kg + mg/kg/h i.v.
Description: Rabbit venous thrombus models were prepared by a modification of the report of Wong et al. (Wong P C. et al., J. Pharmacol. Exp. Ther. 292: 351-357 (2000)). […] A tracheostomy tube was inserted to each rabbit, which was then ventilated using a respirator. For the intravenous administration of a test drug and blood collection, catheters were inserted to the right femoral vein and the right femoral artery, respectively. An arteriovenous shunt filled with saline was inserted to the carotid artery and the jugular vein. […] Also, 4-0 silk thread having a length of 5 cm was indwelled in the arteriovenous shunt. Blood was sent for 30 minutes from the carotid artery to the jugular vein via the arteriovenous shunt. The shunt was removed, and the weight of the silk thread covered with thrombus was measured. The weight of the silk thread measured before the experiment was subtracted from the measured weight, and the obtained value was used as a wet thrombus weight. One hour before the open of the arteriovenous shunt, the test drug or a vehicle was promptly intravenously administered (0.67 mL/kg) and then continuously intravenously administered (1 mL/kg/hr). The continuous injection was continued throughout the experiment. […] STA calcium chloride (manufactured by Roche Diagnostics K.K.) was added in an amount equal thereto, and the time required for coagulation was measured.

[4] = system: Rabbit nail bleeding models; experiment: Effect of combined use with antiplatelet drug using rabbit nail bleeding model; type: in vivo; conditions: alone, dose 0.67 + 1.0 mg/kg + mg/kg/h i.v.
Description: Rabbit nail bleeding models were prepared by a modification of the report of Wong et al. (Wong P C. et al., J. Thromb. Haemost. 7: 1313-1320 (2009)). Male rabbits (JW, 1.5 to 3.5 kg) were anesthetized by the inhalation of isoflurane (ISOFLU®, manufactured by DS Pharma Animal Health Co., Ltd.) (introduced anesthesia: 4%, continuous anesthesia: 2 to 3%). For the intravenous administration of a test drug or a vehicle, an indwelling needle was inserted to the auricular vein, and the test drug or the vehicle was promptly intravenously administered (0.67 mL/kg) and then continuously intravenously administered (1 mL/kg/hr). One hour after the start of administration, three posterior toenails were cut and dipped in saline heated to approximately 37° C., and the bleeding time was measured. The bleeding time was defined as a time from the cutting to the arrest of bleeding, and an average value from the three nails was used. The measurement time was 60 minutes at the maximum. If bleeding for 60 minutes or longer was confirmed, the bleeding time was regarded as 60 minutes.

[5] = metabolites identified using LC-MS
[6] = oral 10 mg/kg, 0 hr (before administration)
[7] = oral 30 mg/kg, 0 hr (before administration)

SMILES: Cl.N[C@H](CF)[C@H]1CC[C@H](C(=O)N2CC[C@@H](C3CCCCC3)[C@H]2C(=O)Nc2ccc3c(c2)cc2n3C3(CCC3)OC2=O)CC1 [Example 7, (3S)-1-({trans-4-[(1S)-1-amino-2-fluoroethyl]cyclohexyl}carbonyl)-3-cyclohexyl-N-(1′-oxo-1′H-spiro[cyclobutane-1,3′-[1,3]oxazolo[3,4-a]indol]-7′-yl)-L-prolinamide hydrochloride]
- Residual rate (%) Human liver S9 [1]: 71%
- Residual rate (%) Human plasma (human plasma): <1%
- Metabolite formed (conversion by metabolism) [2, 5]: converted to the compound of Reference Example 2-6
- aPTT (male cynomolgus monkey; [6]): 23.8 ± 2.2 s
- aPTT (ratio) (male cynomolgus monkey; [6]): 1.00 ± 0.00 ratio
- aPTT (male cynomolgus monkey; oral 10 mg/kg, 0.5 hr): 26.9 ± 3.3 s
- aPTT (ratio) (male cynomolgus monkey; oral 10 mg/kg, 0.5 hr): 1.13 ± 0.03 ratio
- aPTT (male cynomolgus monkey; oral 10 mg/kg, 1 hr): 30.5 ± 3.0 s
- aPTT (ratio) (male cynomolgus monkey; oral 10 mg/kg, 1 hr): 1.29 ± 0.04 ratio
- aPTT (male cynomolgus monkey; oral 10 mg/kg, 2 hr): 36.5 ± 4.1 s
- aPTT (ratio) (male cynomolgus monkey; oral 10 mg/kg, 2 hr): 1.53 ± 0.07 ratio
- aPTT (male cynomolgus monkey; oral 10 mg/kg, 4 hr): 38.5 ± 3.5 s
- aPTT (ratio) (male cynomolgus monkey; oral 10 mg/kg, 4 hr): 1.62 ± 0.00 ratio
- aPTT (male cynomolgus monkey; oral 10 mg/kg, 6 hr): 37.5 ± 4.5 s
- aPTT (ratio) (male cynomolgus monkey; oral 10 mg/kg, 6 hr): 1.57 ± 0.06 ratio
- aPTT (male cynomolgus monkey; oral 10 mg/kg, 24 hr): 26.1 ± 3.2 s
- aPTT (ratio) (male cynomolgus monkey; oral 10 mg/kg, 24 hr): 1.10 ± 0.06 ratio
- aPTT (male cynomolgus monkey; [7]): 23.9 ± 1.6 s
- aPTT (ratio) (male cynomolgus monkey; [7]): 1.00 ± 0.00 ratio
- aPTT (male cynomolgus monkey; oral 30 mg/kg, 0.5 hr): 27.6 ± 3.2 s
- aPTT (ratio) (male cynomolgus monkey; oral 30 mg/kg, 0.5 hr): 1.15 ± 0.10 ratio
- aPTT (male cynomolgus monkey; oral 30 mg/kg, 1 hr): 32.8 ± 2.8 s
- aPTT (ratio) (male cynomolgus monkey; oral 30 mg/kg, 1 hr): 1.37 ± 0.03 ratio
- aPTT (male cynomolgus monkey; oral 30 mg/kg, 2 hr): 36.9 ± 0.8 s
- aPTT (ratio) (male cynomolgus monkey; oral 30 mg/kg, 2 hr): 1.55 ± 0.07 ratio
- aPTT (male cynomolgus monkey; oral 30 mg/kg, 4 hr): 39.4 ± 1.4 s
- aPTT (ratio) (male cynomolgus monkey; oral 30 mg/kg, 4 hr): 1.65 ± 0.12 ratio
- aPTT (male cynomolgus monkey; oral 30 mg/kg, 6 hr): 39.4 ± 1.5 s
- aPTT (ratio) (male cynomolgus monkey; oral 30 mg/kg, 6 hr): 1.65 ± 0.12 ratio
- aPTT (male cynomolgus monkey; oral 30 mg/kg, 24 hr): 34.0 ± 3.3 s
- aPTT (ratio) (male cynomolgus monkey; oral 30 mg/kg, 24 hr): 1.42 ± 0.05 ratio

- Bleeding time ([4]; rabbit, maximum 60 minutes): 1087 ± 522 s
- Bleeding time (fold-increase) ([4]; ratio to vehicle group average): 1.9 ± 0.9 fold-increase
SMILES: CC(=O)Oc1ccccc1C(=O)O [Aspirin]
- PT (ratio) [3]: 0.99 ± 0.01 ratio
- Thrombus weight [3]: 96 ± 9 mg
- aPTT (ratio) [3]: 0.97 ± 0.01 ratio

- Residual rate (%) Human liver S9 [1]: 82%
- Residual rate (%) Human plasma (human plasma): 14%
- Metabolite formed (conversion by metabolism) ([2]; human, 20 min, 1 μmol/L): Example 25
SMILES: CC1(C)OC(=O)c2cc3cc(NC(=O)[C@@H]4[C@H](N5CCCCC5)CCN4C(=O)[C@H]4CC[C@H]([C@H](N)CF)CC4)ccc3n21 [Example 15, (2S,3R)-1-({trans-4-[(1S)-1-Amino-2-fluoroethyl]cyclohexyl}carbonyl)-N-(3,3-dimethyl-1-oxo-1H-[1,3]oxazolo[3,4-a]indol-7-yl)-3-(piperidin-1-yl)pyrrolidine-2-carboxamide 2-trifluoroacetate]

SMILES: CC1(C)OC(=O)c2cc3cc(NC(=O)[C@@H]4[C@@H](c5ccccc5)CCN4C(=O)[C@H]4CC[C@H]([C@H](N)CF)CC4)ccc3n21.Cl [Example 20, (3R)-1-({trans-4-[(1S)-1-amino-2-fluoroethyl]cyclohexyl}carbonyl)-N-(3,3-dimethyl-1-oxo-1H-[1,3]oxazolo[3,4-a]indol-7-yl)-3-phenyl-L-prolinamide]
- Residual rate (%) Human liver S9 [1]: 93%
- Residual rate (%) Human plasma (human plasma): 11%
- Metabolite formed (conversion by metabolism) [2, 5]: Reference Example 20-5

SMILES: CC1(C)OC(=O)c2cc3cc(NC(=O)[C@@H]4[C@H](C5CCCCC5)CCN4C(=O)[C@H]4CC[C@H]([C@H](N)CF)CC4)ccc3n21.Cl [Example 1, (2S,3S)-1-({trans-4-[(1S)-1-Amino-2-fluoroethyl]cyclohexyl}carbonyl)-N-(3,3-dimethyl-1-oxo-1H-[1,3]oxazolo[3,4-a]indol-7-yl)-3-cyclohexylpyrrolidine-2-carboxamide hydrochloride]
- Residual rate (%) Human liver S9 [1]: 87%
- Residual rate (%) Human plasma (human plasma): 29%
- Metabolite formed (conversion by metabolism) [2, 5]: converted to the compound of Reference Example 2-6

SMILES: Cl.N[C@H](CF)[C@H]1CC[C@H](C(=O)N2CC[C@@H](C3CCCCC3)[C@H]2C(=O)Nc2ccc3c(c2)cc2n3C(CF)(CF)OC2=O)CC1 [Example 6, (3S)-1-({trans-4-[(1S)-1-amino-2-fluoroethyl]cyclohexyl}carbonyl)-N-[3,3-bis(fluoromethyl)-1-oxo-1H-[1,3]oxazolo[3,4-a]indol-7-yl]-3-cyclohexyl-L-prolinamide hydrochloride]
- Residual rate (%) Human liver S9 [1]: 67%
- Residual rate (%) Human plasma (human plasma): 7.9%
- Metabolite formed (conversion by metabolism) [2, 5]: converted to the compound of Reference Example 2-6

- Residual rate (%) Human liver S9 [1]: 69%
- Residual rate (%) Human plasma (human plasma): 21%
- Metabolite formed (conversion by metabolism) ([2]; human, 20 min, 1 μmol/L): converted to the compound of Example 24
SMILES: CO[C@H]1CC[C@H]([C@@H]2CCN(C(=O)[C@H]3CC[C@H]([C@H](N)CF)CC3)[C@@H]2C(=O)Nc2ccc3c(c2)cc2n3C(CF)(CF)OC2=O)CC1 [Example 13, (3S)-1-({trans-4-[(1S)-1-amino-2-fluoroethyl]cyclohexyl}carbonyl)-N-[3,3-bis(fluoromethyl)-1-oxo-1H-[1,3]oxazolo[3,4-a]indol-7-yl]-3-(trans-4-methoxycyclohexyl)-L-prolinamide]

From patent US9718840B2, “Condensed 5-oxazolidinone derivative” (SUMITOMO DAINIPPON PHARMA CO., LTD., priority 2014, dated 2017)
